One test concerns the target T1, ALDH2 (Homo sapiens, UniProt P05091).
T1 construct: histidine-tag (N); made in house; host or cells: bacterial expression (pETite vector, IPTG induction)
T1 sequence (P05091 18-517): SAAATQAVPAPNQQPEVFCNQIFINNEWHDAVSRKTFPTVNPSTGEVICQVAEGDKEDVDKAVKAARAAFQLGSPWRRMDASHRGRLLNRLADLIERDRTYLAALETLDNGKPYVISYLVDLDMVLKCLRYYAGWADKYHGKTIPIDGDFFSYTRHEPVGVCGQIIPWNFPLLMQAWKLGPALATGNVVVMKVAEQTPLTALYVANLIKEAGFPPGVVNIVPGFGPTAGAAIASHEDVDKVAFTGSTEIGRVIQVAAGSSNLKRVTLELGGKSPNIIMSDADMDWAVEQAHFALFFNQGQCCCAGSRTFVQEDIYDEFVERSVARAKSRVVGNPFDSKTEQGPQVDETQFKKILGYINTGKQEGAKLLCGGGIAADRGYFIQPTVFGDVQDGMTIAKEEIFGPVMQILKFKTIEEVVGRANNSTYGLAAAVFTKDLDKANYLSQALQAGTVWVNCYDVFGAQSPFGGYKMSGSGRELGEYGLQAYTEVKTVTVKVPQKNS
In words: Purified ALDH2 assay with propanal, NADH fluorescence. It counts as biochemical. The settings on record: purified enzyme. An excerpt: ALDHs were cloned into bacterial expression vector for in vitro enzyme assays and into mammalian expression vectors for cell-based enzyme assays. Human ALDH1A1 cDNA and human ALDH2 cDNA were purchased from OriGene (SC321535) and Open Biosystems (MHS4771-99611182), respectively. and human ALDH1A2 cDNA was cloned from human testis RNA using RT-PCR (Population Division of the Department of Economic and Social Affairs of the United Nations Secretariat. World Population prospects: the 2008 revision. Available at http://www.un.org/esa/population/ (Retrieved Sep. 30, 2011)). For bacterial expression, an open reading frame of ALDH1A1 and ALDH2 were subcloned into the pETite vector (Lucigen) with a 5′ histidine-tag and that of ALDH1A2 into a pET28 vector (Novagen) with a 3′ histidine-tag. Correct frame and sequences were verified through DNA sequencing (UW DNA sequencing facility). ALDHs were induced with 1 mM IPTG and purified using His.Bind resin (Novagen, San Diego, Calif.) and stored in a buffer containing 20 mM Hepes (pH 8), 150 mM KCl and 1 mM EDTA as previously described (Fierce, Y., de Morais Vieira, M., Piantedosi, R., Wyss, A., Blaner, W. S., and Paik, J. (2008) In vitro and in vivo characterization of retinoid synthesis from beta-carotene. Archives of biochemistry and biophysics 472, 126-138). […]
For this, 2 μg purified ALDH2, 20 μM propanal and varying concentrations of inhibitors were incubated at room temperature. Enzyme activity was determined by measuring fluorescence of NADH (Ex, 350 nm/Em, 460 nm) using a Victor3 plate reader (PerkinElmer), and initial velocity was calculated from two consecutive readings over 1 minute.

The target in a further test is T2, ALDH1A2 (Homo sapiens, UniProt O94788).
T2 sequence (O94788 1-518): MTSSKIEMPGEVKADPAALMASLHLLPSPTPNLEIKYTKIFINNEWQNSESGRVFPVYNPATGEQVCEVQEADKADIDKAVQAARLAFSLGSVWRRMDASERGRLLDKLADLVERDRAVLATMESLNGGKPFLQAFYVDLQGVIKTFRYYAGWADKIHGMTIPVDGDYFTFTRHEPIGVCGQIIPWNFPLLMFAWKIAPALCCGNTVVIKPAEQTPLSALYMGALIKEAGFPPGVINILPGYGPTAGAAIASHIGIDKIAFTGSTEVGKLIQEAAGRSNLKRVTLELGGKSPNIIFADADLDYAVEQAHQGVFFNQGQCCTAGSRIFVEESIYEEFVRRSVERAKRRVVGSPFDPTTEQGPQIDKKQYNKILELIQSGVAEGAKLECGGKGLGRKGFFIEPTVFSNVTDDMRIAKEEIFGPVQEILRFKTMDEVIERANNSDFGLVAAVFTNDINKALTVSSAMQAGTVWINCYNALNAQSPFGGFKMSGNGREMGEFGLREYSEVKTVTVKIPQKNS
The test is described as follows: Inhibitor screening using purified enzymes: ALDH1A2 activity, retinoic acid production by HPLC (5 uM initial screen, then IC50). As to conditions: purified enzyme. Details: histidine-tag (C); made in house; host or cells: bacterial expression (pET28 vector, IPTG induction). The class given is biochemical. An excerpt:
ALDHs were cloned into bacterial expression vector for in vitro enzyme assays and into mammalian expression vectors for cell-based enzyme assays. Human ALDH1A1 cDNA and human ALDH2 cDNA were purchased from OriGene (SC321535) and Open Biosystems (MHS4771-99611182), respectively. and human ALDH1A2 cDNA was cloned from human testis RNA using RT-PCR (Population Division of the Department of Economic and Social Affairs of the United Nations Secretariat. World Population prospects: the 2008 revision. Available at http://www.un.org/esa/population/ (Retrieved Sep. 30, 2011)). For bacterial expression, an open reading frame of ALDH1A1 and ALDH2 were subcloned into the pETite vector (Lucigen) with a 5′ histidine-tag and that of ALDH1A2 into a pET28 vector (Novagen) with a 3′ histidine-tag. Correct frame and sequences were verified through DNA sequencing (UW DNA sequencing facility). ALDHs were induced with 1 mM IPTG and purified using His.Bind resin (Novagen, San Diego, Calif.) and stored in a buffer containing 20 mM Hepes (pH 8), 150 mM KCl and 1 mM EDTA as previously described (Fierce, Y., de Morais Vieira, M., Piantedosi, R., Wyss, A., Blaner, W. S., and Paik, J. (2008) In vitro and in vivo characterization of retinoid synthesis from beta-carotene. Archives of biochemistry and biophysics 472, 126-138).
ALDH1A1 and ALDH1A2 activity was determined as previously reported (Beedle M T, Stevison F, Zhong G, Topping T, Hogarth C, Isoherranen N, Griswold M D. Sources of All-Trans Retinal Oxidation Independent of the Aldehyde Dehydrogenase 1A Isozymes Exist in the Postnatal Testis. Biol Reprod. 2018 Sep. 21. doi: 10.1093/biolre/ioy200). Briefly, purified enzymes were incubated in a buffer containing 10 mM HEPES buffer (pH 8.0), 150 mM potassium chloride and 2 mM EDTA with 2 mM NAD. Retinoic acid production was determined using HPLC as previously reported (Amory J K, Muller C H, Shimshoni A J, Isoherranen N, Paik J, Moreb J S, Amory D W, Evanoff R, Goldstein A S, Griswold M D. Suppression of spermatogenesis by bisdichloroacetyldiamines is mediated by inhibition of testicular retinoic acid biosynthesis. Journal of Andrology 2011; 32(1):111-119). Inhibitors were diluted in DMSO and added to the reactions. […] For initial screening of inhibitors for ALDH1A2, 1 μg ALDH1A2, 5 μM all-trans-retinal and 5 μM inhibitors were incubated for 15 min at 37° C. […] For this purpose, 0.5 μg ALDH1A2 and […] were incubated for 5 minutes at 37° C. with varying concentrations of inhibitors. To determine specificity toward ALDH1A2, the IC50 for […]

For orientation: IC50 means the concentration needed to halve the response being measured. Higher therefore signals lower potency. `CS(=O)(=O)c1ccc(-c2nn(-c3ccccc3)cc2C(=O)Nc2ccc(F)c(F)c2)cc1` [Compound 207, 3-(4-(Methylsulfonyl)phenyl)-N-(3,4-difluorophenyl)-1-phenyl-1H-pyrazole-4-carboxamide]: the IC50 at ALDH2 is 10.3 µM; on ALDH1A2 it was 0.01 µM. In the case of `COC(=O)c1ccc(-c2nn(-c3ccccc3)cc2C=O)cc1` [Cmpd 33], the IC50 against ALDH2 turned out to be 0.077 µM; at ALDH1A2, 0.198 µM. The like results for `O=C(Nc1cccc(C(F)(F)F)c1)c1cn(-c2ccccc2)nc1-c1ccc([N+](=O)[O-])cc1` [Compound 151, 3-(4-Nitrophenyl)-1-phenyl-N-[3-(trifluoromethyl)phenyl]-1H-pyrazole-4-carboxamide] were, in that order, 24.6 µM and 0.822 µM. On the same counts, the results for `CC(=O)Oc1ccccc1NC(=O)c1cn(-c2ccccc2)nc1-c1ccc(S(C)(=O)=O)cc1` [Compound 210, N-(2-Acetoxyphenyl)-3-[4-(methylsulfonyl)phenyl]-1-phenyl-1H-pyrazole-4-carboxamide] are 112 µM and 0.032 µM.

`CS(=O)(=O)c1ccc(-c2nn(-c3ccccc3)cc2C(=O)Nc2cccnc2)cc1` [Compound 253, 3-[4-(Methylsulfonyl)phenyl]-1-phenyl-N-(pyridin-3-yl)-1H-pyrazole-4-carboxamide]: the half-inhibitory concentration (IC50) worked out at 10 µM against ALDH2 and 0.059 µM at ALDH1A2. Take `O=C(Nc1ccc(O)cc1)c1cn(-c2ccccc2)nc1-c1ccc([N+](=O)[O-])cc1` [Compound 167, N-(4-Hydroxyphenyl)-3-(4-nitrophenyl)-1-phenyl-1H-pyrazole-4-carboxamide]: the IC50 at ALDH2 was determined as 16.9 µM; against ALDH1A2, 0.397 µM. `O=C(Nc1ccccc1O)c1cn(-c2ccccc2)nc1-c1ccc([N+](=O)[O-])cc1` [Compound 165, N-(2-Hydroxyphenyl)-3-(4-nitrophenyl)-1-phenyl-1H-pyrazole-4-carboxamide]: the figures for the IC50 against ALDH2 and against ALDH1A2 were 23.3 µM and 0.211 µM, respectively.

For `CS(=O)(=O)c1ccc(-c2nn(-c3cccc(F)c3)cc2C(=O)Nc2ccc(C#N)cc2)cc1` [Compound 249, N-(4-Cyanophenyl)-3-[4-(methylsulfonyl)phenyl]-1-(3-fluorophenyl)-1H-pyrazole-4-carboxamide], the values for the concentration for half-maximal inhibition (IC50) against ALDH2 and at ALDH1A2 were 35.9 µM and 0.038 µM, respectively.

On to `CS(=O)(=O)c1ccc(-c2nn(-c3ccccc3F)cc2C(=O)Nc2ccccc2O)cc1` [Compound 238, N-(2-Hydroxphenyl)-3-[4-(methylsulfonyl)phenyl]-1-(2-fluoropheny)-1H-pyrazole-4-carboxamide], for which, at ALDH2, the IC50 came to 40.9 µM. For `O=C(Nc1ccccc1C(F)(F)F)c1cn(-c2ccccc2)nc1-c1ccc([N+](=O)[O-])cc1` [Compound 150, 3-(4-Nitrophenyl)-1-phenyl-N-[2-(trifluoromethyl)phenyl]-1H-pyrazole-4-carboxamide], the IC50 against ALDH2 amounted to 13 µM; against ALDH1A2, 0.17 µM.

In the case of `COC(=O)c1cn(-c2ccccc2)nc1-c1ccc([N+](=O)[O-])cc1` [Compound 229, Methyl 3-(4-nitrophenyl)-1-phenyl-1H-pyrazole-4-carboxylate], the figures for the IC50 at ALDH2 and at ALDH1A2 were 15.2 µM and 0.217 µM, respectively. For `CS(=O)(=O)c1ccc(-c2nn(-c3ccccc3)cc2C(=O)Nc2cccc(C(F)(F)F)c2)cc1` [Compound 208, 3-(4-(Methylsulfonyl)phenyl)-N-(3-trifluoromethylphenyl)-1-phenyl-1H-pyrazole-4-carboxamide], the IC50 against ALDH2 worked out at 145 µM; against ALDH1A2, 0.01 µM. Take `CS(=O)(=O)c1ccc(-c2nn(-c3cccc(C#N)c3)cc2C(=O)Nc2cccc(C(F)(F)F)c2)cc1` [Compound 270, 1-(3-Cyanophenyl)-N-(3-trifluoromethylphenyl)-3-[4-(methylsulfonyl)phenyl]-1H-pyrazole-4-carboxamide]: the IC50 against ALDH2 came out at 91.7 µM; against ALDH1A2, 0.346 µM.

`O=C(c1sccc1Cl)N1CCN(c2ccc([N+](=O)[O-])c(N3CCCC3)c2)CC1` [Compound 324, {4-[4-Nitro-3-(pyrrolidin-1-yl)phenyl]piperazin-1-yl}(3-chlorothiophen-2-yl)methanone]: the IC50 at ALDH2 amounted to 5.22 µM; against ALDH1A2 it was 0.142 µM.

Take `CS(=O)(=O)c1ccc(-c2nn(-c3cccc(Cl)c3)cc2C(=O)Nc2cccc(F)c2)cc1` [Compound 239, N-(3-Fluorophenyl)-3-[4-(methylsulfonyl)phenyl]-1-(3-chloropheny)-1H-pyrazole-4-carboxamide]: the IC50 was 9.6 µM against ALDH2 and 0.271 µM at ALDH1A2. The like results for `CS(=O)(=O)c1ccc(-c2nn(-c3cccc(F)c3)cc2C(=O)Nc2cccc(C(F)(F)F)c2)cc1` [Compound 250, N-(3-Trifluoromethyphenyl)-3-[4-(methylsulfonyl)phenyl]-1-(3-fluorophenyl)-1H-pyrazole-4-carboxamide] were, in that order, 85.8 µM and 0.291 µM. The like results for `O=C(Nc1cccc(F)c1)c1cn(-c2ccccc2)nc1-c1ccc([N+](=O)[O-])cc1` [Compound 106, N-(3-fluorophenyl)-3-(4-nitrophenyl)-1-phenyl-1H-pyrazole-4-carboxamide] were, in that order, 146 µM and 0.07 µM.

The values are drawn from US11548875B2, “Inhibitor compounds for male contraception” (University of Washington, priority 2018, dated 2023).
